Measured values from publication PMC8080777, “Discovery, optimization, and evaluation of non-bile acid FXR/TGR5 dual agonists” (Scientific Reports, 2021).
Values belong to the compound of their own block, whether it stands above or below them.

Columns and labels:
OGTT blood glucose = assay type: in vivo; conditions: single oral 100 mg/kg, overnight-fasted C57 mice, 2 g/kg glucose one hour later, blood 15 min after loading
Procedure: To measure blood glucose levels, 100 mg/kg of test compounds 20p and 20q or vehicle were administered orally to overnight-fasted C57 mice (n = 5 mice/group, control; n = 10). One hour later, all mice were challenged with 2 g/kg glucose, and blood samples were collected after 15 min of glucose loading. The blood glucose levels were measured using LabAssay Glucose (FUJIFILM Wako Pure Chemical Corporation, Osaka City, Osaka, Japan)[56].
Amersham Place Little Chalfont Buckinghamshire, HP7 9NA UK), and cDNA was synthesized using ReverTra Ace qPCR RT Master Mix (Toyobo Co., Ltd., Osaka City, Osaka, Japan). Real-time PCR was performed using a CFX96 Touch Real-Time PCR Analysis System (CFX Manager, Bio-Rad, 1000 Alfred Nobel Drive, Hercules, CA, USA), and the mRNA expression levels of SHP and CYP7A1, the target gene s of FXR, were measured using the intercalator […]
In vivo assay protocol (GLP-1)
Measurement of GLP-1 secretion: To measure plasma GLP-1 levels, 100 mg/kg of compounds 20p and 20q were administered orally to overnight -fasted C57 mice (n=5 animals/group). One hour later, all mice were challenged with 2 g/kg glucose, and blood samples were collected after 15 min of glucose challenge test. Plasma GLP-1 levels were measured using the GLP-1 ELISA Kit Wako, High Sensitive (FUJIFILM Wako Pure Chemical Corporation, Osaka city, Osaka, […]
In vivo assay protocol (OGTT test) […]

FXR = conditions: cited from earlier work
TGR5 = target: T1, TGR5 (Homo sapiens, UniProt Q8TDU6); conditions: cited from earlier work
T1 construct: host or cells: CHO cells
T1 sequence (Q8TDU6 1-330): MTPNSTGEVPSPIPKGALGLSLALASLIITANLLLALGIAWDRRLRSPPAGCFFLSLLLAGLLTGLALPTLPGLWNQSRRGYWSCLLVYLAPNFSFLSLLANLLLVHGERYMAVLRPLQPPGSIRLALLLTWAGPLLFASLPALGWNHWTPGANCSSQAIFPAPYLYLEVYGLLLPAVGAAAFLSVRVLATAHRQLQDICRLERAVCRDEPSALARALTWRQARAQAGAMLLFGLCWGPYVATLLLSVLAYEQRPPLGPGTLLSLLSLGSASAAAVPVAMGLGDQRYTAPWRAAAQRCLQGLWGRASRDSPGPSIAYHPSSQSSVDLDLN

GPR119 = target: T2, GPR119 (Homo sapiens, UniProt Q8TDV5); assay: Selectivity, cellular functional assay; assay type: cell-based
T2 construct: Eurofine Cerep / Eurofine Panlabs Discovery Services
From the text: (§1) Compound 20p was screened against a broad panel of NRs and GPCRs to determine its agonist activity in vitro. […]
(§2) The selectivity tests of compound 20p were investigated by Eurofine Cerep (86600, Celle-Levescault, France) and Eurofine Panlabs Discovery Services (No. 25, Wugong, 6th Road, Wugu District, New Taipai City, Taiwan). Compound binding was caluculated as a % inhibition of the binding of radioactively labeled ligand specific for each target. Cellular agonist effect wa calculated as a % of control response to a known reference agonist for each target and cellular antagonist effect as caluculated as a % inhibition of control reference agonist response for each target at 30 µM of compound 20p.
(§3) 12.3%; CAR -2.5%, PPAR alpha 0.0%; PPAR delta -3.6%; PPAR gamma -1.0%; PXR 4.5%; ER alpha -16.6%; ER beta 17% at 30 µM.

GPR120 = target: T3, GPR120 (Homo sapiens, UniProt Q5NUL3); assay: Selectivity, cellular functional assay; assay type: cell-based
T3 construct: Eurofine Cerep / Eurofine Panlabs Discovery Services
From the text: as §1, §2, §3

GPR40 = target: T4, GPR40 (Homo sapiens, UniProt O14842); assay: Selectivity, cellular functional assay; assay type: cell-based
T4 construct: Eurofine Cerep / Eurofine Panlabs Discovery Services
From the text: as §1, §2, §3

LXR alpha = target: T5, LXR alpha (Homo sapiens, UniProt Q13133); assay: Selectivity, NR functional assay; assay type: cell-based
T5 construct: Eurofine Cerep / Eurofine Panlabs Discovery Services
From the text: as §1, §2, §3

LXR beta = target: T6, LXR beta (Homo sapiens, UniProt P55055); assay: Selectivity, NR functional assay; assay type: cell-based
T6 construct: Eurofine Cerep / Eurofine Panlabs Discovery Services
From the text: as §1, §2, §3

PPAR alpha = target: T7, PPAR alpha (Homo sapiens, UniProt Q07869); assay: Selectivity, NR functional assay; assay type: cell-based
T7 construct: Eurofine Cerep / Eurofine Panlabs Discovery Services
From the text: as §1, §2, §3

PXR = target: T8, PXR (Homo sapiens, UniProt O75469); assay: Selectivity, NR functional assay; assay type: cell-based
T8 construct: Eurofine Cerep / Eurofine Panlabs Discovery Services
From the text: as §1, §2, §3

ER alpha = target: T9, ER alpha (Homo sapiens, UniProt P03372); assay: Selectivity, binding assay
T9 construct: Eurofine Cerep / Eurofine Panlabs Discovery Services
From the text: as §1, §2, §3

ER beta = target: T10, ER beta (Homo sapiens, UniProt Q92731); assay: Selectivity, binding assay
T10 construct: Eurofine Cerep / Eurofine Panlabs Discovery Services
From the text: as §1, §2, §3

RXR alpha = target: T11, RXR alpha (Homo sapiens, UniProt P19793); assay: Selectivity, binding assay
T11 construct: Eurofine Cerep / Eurofine Panlabs Discovery Services
From the text: as §1, §2, §3

T10 sequence (Q92731 whole entry): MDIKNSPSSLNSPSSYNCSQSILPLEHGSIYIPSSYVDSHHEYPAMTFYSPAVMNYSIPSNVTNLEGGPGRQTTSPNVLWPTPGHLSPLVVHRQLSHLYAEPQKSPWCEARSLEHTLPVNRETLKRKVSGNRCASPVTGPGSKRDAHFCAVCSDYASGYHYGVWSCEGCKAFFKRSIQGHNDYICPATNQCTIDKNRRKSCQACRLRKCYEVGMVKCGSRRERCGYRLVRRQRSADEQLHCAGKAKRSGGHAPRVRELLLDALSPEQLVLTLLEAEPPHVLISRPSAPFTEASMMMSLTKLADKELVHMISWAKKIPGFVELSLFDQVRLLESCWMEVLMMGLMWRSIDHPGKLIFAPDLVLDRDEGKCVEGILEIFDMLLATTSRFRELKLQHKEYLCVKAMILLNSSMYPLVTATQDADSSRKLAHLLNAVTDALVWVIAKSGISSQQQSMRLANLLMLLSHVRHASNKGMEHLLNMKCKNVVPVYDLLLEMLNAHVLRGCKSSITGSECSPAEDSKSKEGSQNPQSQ
T3 sequence (Q5NUL3 whole entry): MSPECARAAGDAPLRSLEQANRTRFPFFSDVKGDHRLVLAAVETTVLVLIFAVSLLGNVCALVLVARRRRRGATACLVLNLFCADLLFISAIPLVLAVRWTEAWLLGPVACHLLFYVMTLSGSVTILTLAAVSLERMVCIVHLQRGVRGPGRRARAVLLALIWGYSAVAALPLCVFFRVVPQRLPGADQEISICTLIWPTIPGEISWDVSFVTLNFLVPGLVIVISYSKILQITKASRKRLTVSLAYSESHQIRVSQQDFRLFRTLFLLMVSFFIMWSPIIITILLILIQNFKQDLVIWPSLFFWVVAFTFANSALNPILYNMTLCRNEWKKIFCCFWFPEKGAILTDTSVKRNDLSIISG
T6 sequence (P55055 whole entry): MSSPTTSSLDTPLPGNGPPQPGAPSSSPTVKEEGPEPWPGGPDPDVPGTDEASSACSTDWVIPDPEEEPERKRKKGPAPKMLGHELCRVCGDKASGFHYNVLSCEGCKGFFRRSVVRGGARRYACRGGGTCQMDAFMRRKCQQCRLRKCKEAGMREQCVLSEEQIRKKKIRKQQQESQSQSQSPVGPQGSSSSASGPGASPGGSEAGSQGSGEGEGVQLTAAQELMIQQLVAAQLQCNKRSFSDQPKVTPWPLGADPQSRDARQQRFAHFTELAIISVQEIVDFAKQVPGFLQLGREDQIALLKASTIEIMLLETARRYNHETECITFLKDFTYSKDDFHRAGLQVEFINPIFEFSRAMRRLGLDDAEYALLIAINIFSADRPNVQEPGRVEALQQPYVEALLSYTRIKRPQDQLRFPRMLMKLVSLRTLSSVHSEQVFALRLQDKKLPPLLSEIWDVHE
T9 sequence (P03372 whole entry): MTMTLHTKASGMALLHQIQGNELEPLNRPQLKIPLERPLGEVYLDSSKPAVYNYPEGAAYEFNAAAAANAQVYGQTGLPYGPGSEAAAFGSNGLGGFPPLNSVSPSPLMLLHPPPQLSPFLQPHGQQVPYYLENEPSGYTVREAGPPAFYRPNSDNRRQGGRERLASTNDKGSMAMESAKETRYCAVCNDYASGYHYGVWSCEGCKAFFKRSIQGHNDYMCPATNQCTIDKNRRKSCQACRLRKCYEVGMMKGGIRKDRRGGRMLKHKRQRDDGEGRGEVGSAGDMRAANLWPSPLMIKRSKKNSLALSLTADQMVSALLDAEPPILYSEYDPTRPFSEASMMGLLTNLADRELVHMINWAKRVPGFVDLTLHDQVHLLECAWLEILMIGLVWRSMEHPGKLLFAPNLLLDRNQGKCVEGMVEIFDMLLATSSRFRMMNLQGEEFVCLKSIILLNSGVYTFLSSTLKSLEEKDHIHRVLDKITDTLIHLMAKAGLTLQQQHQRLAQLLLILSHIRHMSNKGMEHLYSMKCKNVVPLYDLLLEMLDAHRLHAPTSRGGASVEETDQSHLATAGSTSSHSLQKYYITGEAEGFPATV
T4 sequence (O14842 whole entry): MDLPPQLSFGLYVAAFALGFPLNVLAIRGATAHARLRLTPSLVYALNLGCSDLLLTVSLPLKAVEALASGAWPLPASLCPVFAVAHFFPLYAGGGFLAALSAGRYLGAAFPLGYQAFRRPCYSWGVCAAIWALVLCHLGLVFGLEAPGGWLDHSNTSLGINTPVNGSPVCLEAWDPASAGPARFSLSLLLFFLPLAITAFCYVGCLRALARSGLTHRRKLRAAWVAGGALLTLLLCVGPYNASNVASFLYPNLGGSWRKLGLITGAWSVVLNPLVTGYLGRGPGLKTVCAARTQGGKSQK
T11 sequence (P19793 whole entry): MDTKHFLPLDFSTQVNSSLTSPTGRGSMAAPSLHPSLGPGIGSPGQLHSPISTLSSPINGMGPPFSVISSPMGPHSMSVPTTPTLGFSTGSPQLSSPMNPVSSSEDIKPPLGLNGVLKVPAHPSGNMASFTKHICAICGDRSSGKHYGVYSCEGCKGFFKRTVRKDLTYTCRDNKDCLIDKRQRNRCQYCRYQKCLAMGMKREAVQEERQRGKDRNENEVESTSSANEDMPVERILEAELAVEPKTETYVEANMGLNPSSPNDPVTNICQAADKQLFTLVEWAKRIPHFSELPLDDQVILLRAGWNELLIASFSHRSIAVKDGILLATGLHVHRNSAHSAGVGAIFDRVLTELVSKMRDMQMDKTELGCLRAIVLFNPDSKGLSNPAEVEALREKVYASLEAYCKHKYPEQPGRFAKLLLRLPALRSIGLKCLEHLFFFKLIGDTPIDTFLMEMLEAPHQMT
T7 sequence (Q07869 whole entry): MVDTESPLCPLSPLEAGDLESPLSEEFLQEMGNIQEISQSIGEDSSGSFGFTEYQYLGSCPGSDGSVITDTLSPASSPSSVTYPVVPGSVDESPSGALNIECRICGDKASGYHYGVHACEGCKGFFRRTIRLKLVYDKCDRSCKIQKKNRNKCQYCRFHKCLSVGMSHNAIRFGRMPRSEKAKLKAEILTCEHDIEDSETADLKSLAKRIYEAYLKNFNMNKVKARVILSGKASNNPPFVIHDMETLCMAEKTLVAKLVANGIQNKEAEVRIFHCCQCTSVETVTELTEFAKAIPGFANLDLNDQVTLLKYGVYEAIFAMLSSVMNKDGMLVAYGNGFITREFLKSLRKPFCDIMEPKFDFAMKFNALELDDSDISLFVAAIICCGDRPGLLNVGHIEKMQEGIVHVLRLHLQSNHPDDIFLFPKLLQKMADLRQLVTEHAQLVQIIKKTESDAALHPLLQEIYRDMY
T2 sequence (Q8TDV5 whole entry): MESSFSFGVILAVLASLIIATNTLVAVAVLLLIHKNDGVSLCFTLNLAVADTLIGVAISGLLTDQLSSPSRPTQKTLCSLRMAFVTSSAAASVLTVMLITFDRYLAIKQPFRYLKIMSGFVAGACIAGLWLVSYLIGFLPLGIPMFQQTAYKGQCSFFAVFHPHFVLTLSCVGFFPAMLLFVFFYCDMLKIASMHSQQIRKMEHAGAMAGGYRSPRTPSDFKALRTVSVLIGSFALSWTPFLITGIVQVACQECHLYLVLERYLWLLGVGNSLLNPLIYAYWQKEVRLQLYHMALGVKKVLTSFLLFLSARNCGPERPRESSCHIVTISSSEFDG
T8 sequence (O75469 whole entry): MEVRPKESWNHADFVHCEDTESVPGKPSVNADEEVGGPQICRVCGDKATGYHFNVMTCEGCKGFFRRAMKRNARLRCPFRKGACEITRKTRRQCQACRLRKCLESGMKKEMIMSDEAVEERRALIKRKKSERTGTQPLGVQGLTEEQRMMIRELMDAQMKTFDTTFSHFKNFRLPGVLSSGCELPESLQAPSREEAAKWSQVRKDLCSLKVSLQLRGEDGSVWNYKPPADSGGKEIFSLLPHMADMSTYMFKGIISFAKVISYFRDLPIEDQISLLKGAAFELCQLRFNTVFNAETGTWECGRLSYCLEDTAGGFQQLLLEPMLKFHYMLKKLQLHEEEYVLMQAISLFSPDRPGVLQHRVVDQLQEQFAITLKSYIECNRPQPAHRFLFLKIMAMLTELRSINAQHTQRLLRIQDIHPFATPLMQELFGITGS
T5 sequence (Q13133 whole entry): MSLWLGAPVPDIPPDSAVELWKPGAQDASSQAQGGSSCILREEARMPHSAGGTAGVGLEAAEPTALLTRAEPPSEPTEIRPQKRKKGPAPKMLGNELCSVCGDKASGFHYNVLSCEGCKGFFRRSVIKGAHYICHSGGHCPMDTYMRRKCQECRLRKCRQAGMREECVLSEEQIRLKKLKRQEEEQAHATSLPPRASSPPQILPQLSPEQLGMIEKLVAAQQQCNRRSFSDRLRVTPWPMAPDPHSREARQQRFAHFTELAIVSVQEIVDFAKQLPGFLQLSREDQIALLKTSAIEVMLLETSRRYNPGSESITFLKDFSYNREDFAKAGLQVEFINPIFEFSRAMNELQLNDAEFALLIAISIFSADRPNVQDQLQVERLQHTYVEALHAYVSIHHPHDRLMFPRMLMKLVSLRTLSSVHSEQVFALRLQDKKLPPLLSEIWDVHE

Structure (SMILES): COc1ccc(C23CCC(CN(C(=O)c4ccncc4C)c4cc(Cl)cc(Cl)c4)(CC2)CC3)cc1C#N [Compound 20q]
- Blood glucose level on OGTT (OGTT blood glucose): did not reduce the blood glucose level

Structure (SMILES): COC(=O)/C=C/c1cccc(N(Cc2ccc(-c3ccc(N(C)C)cc3)cc2)C(=O)C2CCCCC2)c1 [Compound 7, Fexaramine, reference compound]
- Reported FXR activity (in words) (FXR): specific and potent partial agonist against FXR
- Reported TGR5 activity (in words) (TGR5): no significant agonist activity against TGR5

- activity at 30 µM (GPR119; 30 µM, read-out: GPR119 cellular agonist effect, % of control response to reference agonist): 1.8%
- EC50 (GPR119; cellular functional assay): > 30 µM
- activity at 30 µM (GPR120; 30 µM, read-out: GPR120 cellular agonist effect, % of control response to reference agonist): -5.2%
- EC50 (GPR120; cellular functional assay): > 30 µM
- activity at 30 µM (GPR40; 30 µM, read-out: GPR40 cellular agonist effect, % of control response to reference agonist): 5.9%
- EC50 (GPR40; cellular functional assay): > 30 µM
- activity at 30 µM (LXR alpha; 30 µM, read-out: LXR alpha agonist effect, % of control response to reference agonist): 0.2%
- EC50 (LXR alpha; NR functional assay): > 30 µM
- activity at 30 µM (LXR beta; 30 µM, read-out: LXR beta agonist effect, % of control response to reference agonist): 3.7%
- EC50 (LXR beta; NR functional assay): > 30 µM
- activity at 30 µM (PPAR alpha; 30 µM, read-out: PPAR alpha agonist effect, % of control response to reference agonist): 0%
- EC50 (PPAR alpha; NR functional assay): > 30 µM
- activity at 30 µM (PXR; 30 µM, read-out: PXR agonist effect, % of control response to reference agonist): 4.5%
- EC50 (PXR; NR functional assay): > 30 µM
- inhibition at 30 µM (ER alpha; 30 µM, read-out: ER alpha binding, % inhibition of the binding of radioactively labeled ligand): -16.6%
- EC50 (ER alpha; binding assay): > 30 µM
- inhibition at 30 µM (ER beta; 30 µM, read-out: ER beta binding, % inhibition of the binding of radioactively labeled ligand): 17%
- EC50 (ER beta; binding assay): > 30 µM
- inhibition at 30 µM (RXR alpha; 30 µM, read-out: RXR alpha binding, % inhibition of the binding of radioactively labeled ligand): -12.3%
- EC50 (RXR alpha; binding assay): > 30 µM
Structure (SMILES): COc1cc(Cl)cc(N(CC23CCC(c4ccc(OC)c(C#N)c4)(CC2)CC3)C(=O)c2ccncc2C)c1 [Compound 20p]
- Blood glucose level on OGTT (OGTT blood glucose): robustly lowered the blood glucose level
